PubChem BioAssay AID1963837 (Molecular Pharmacology Branch, DTP, NCI, 2024)

Tested on: 843126-344-R-J1-PDC complex spheroid viability
Assay: Anticancer human tumor 843126-344-R-J1-PDC patient-derived melanoma cell line growth inhibition [POLQ]
Conditions: for IC50: curve of first compound; for viability, T/C: stronger effect = lower value
Outline: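 Three-cell-type spheroids modelling solid tumor plus stroma served as the readout system; POL inhibitors were tested individually and in combination, concentration ranges set by clinical Cmax where known.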

[1] = second compound 0.0316 µM, first compound 0.0316 µM
[2] = second compound 0.0316 µM, first compound 0.1 µM
[3] = second compound 0.1 µM, first compound 0.0316 µM
[4] = second compound 0.1 µM, first compound 0.1 µM
[5] = second compound 0.316 µM, first compound 0.0316 µM
[6] = second compound 0.316 µM, first compound 0.1 µM
[7] = second compound 1 µM, first compound 0.0316 µM
[8] = second compound 1 µM, first compound 0.1 µM
[9] = second compound 3.16 µM, first compound 0.0316 µM
[10] = second compound 3.16 µM, first compound 0.1 µM
[11] = second compound 10 µM, first compound 0.0316 µM
[12] = second compound 10 µM, first compound 0.1 µM
[13] = second compound 0.0316 µM, first compound 0.000316 µM
[14] = second compound 0.0316 µM, first compound 0.001 µM
[15] = second compound 0.0316 µM, first compound 0.00316 µM
[16] = second compound 0.0316 µM, first compound 0.01 µM
[17] = second compound 0.1 µM, first compound 0.000316 µM
[18] = second compound 0.1 µM, first compound 0.001 µM
[19] = second compound 0.1 µM, first compound 0.00316 µM
[20] = second compound 0.1 µM, first compound 0.01 µM
[21] = second compound 0.316 µM, first compound 0.000316 µM
[22] = second compound 0.316 µM, first compound 0.001 µM
[23] = second compound 0.316 µM, first compound 0.00316 µM
[24] = second compound 0.316 µM, first compound 0.01 µM
[25] = second compound 1 µM, first compound 0.000316 µM
[26] = second compound 1 µM, first compound 0.001 µM
[27] = second compound 1 µM, first compound 0.00316 µM
[28] = second compound 1 µM, first compound 0.01 µM
[29] = second compound 3.16 µM, first compound 0.000316 µM
[30] = second compound 3.16 µM, first compound 0.001 µM
[31] = second compound 3.16 µM, first compound 0.00316 µM
[32] = second compound 3.16 µM, first compound 0.01 µM
[33] = second compound 10 µM, first compound 0.000316 µM
[34] = second compound 10 µM, first compound 0.001 µM
[35] = second compound 10 µM, first compound 0.00316 µM
[36] = second compound 10 µM, first compound 0.01 µM
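Wherever viability, T/C is given: spheroids exposed to drugs for seven days before readout.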

## CC1COCCN1c1cc(C2(O)CC3CCC(C2)O3)c2cnn(-c3ccn[nH]3)c2n1 (stereo unspecified) + COC1C(OC(N)=O)C(O)C(Oc2ccc3c(O)c(NC(=O)c4ccc(O)c(CC=C(C)C)c4)c(=O)oc3c2C)OC1(C)C
Second compound 0.0316 µM
  IC50: 387 nM
Second compound 0.1 µM
  IC50: 485 nM
Second compound 0.316 µM
  IC50: 405 nM
Second compound 1 µM
  IC50: 391 nM
Second compound 3.16 µM
  IC50: 399 nM
Second compound 10 µM
  IC50: 493 nM
[1]
  viability, T/C: 83.6%
[2]
  viability, T/C: 66.6%
Second compound 0.0316 µM, first compound 0.316 µM
  viability, T/C: 53.6%
Second compound 0.0316 µM, first compound 1 µM
  viability, T/C: 38.9%
Second compound 0.0316 µM, first compound 3.16 µM
  viability, T/C: 22.7%
Second compound 0.0316 µM, first compound 10 µM
  viability, T/C: 14.5%
[3]
  viability, T/C: 78.8%
[4]
  viability, T/C: 78.9%
Second compound 0.1 µM, first compound 0.316 µM
  viability, T/C: 53.2%
Second compound 0.1 µM, first compound 1 µM
  viability, T/C: 38.8%
Second compound 0.1 µM, first compound 3.16 µM
  viability, T/C: 27.2%
Second compound 0.1 µM, first compound 10 µM
  viability, T/C: 18.3%
[5]
  viability, T/C: 92.1%
[6]
  viability, T/C: 64.9%
Second compound 0.316 µM, first compound 0.316 µM
  viability, T/C: 51.5%
Second compound 0.316 µM, first compound 1 µM
  viability, T/C: 44.5%
Second compound 0.316 µM, first compound 3.16 µM
  viability, T/C: 22.5%
Second compound 0.316 µM, first compound 10 µM
  viability, T/C: 15.1%
[7]
  viability, T/C: 73.2%
[8]
  viability, T/C: 68.3%
Second compound 1 µM, first compound 0.316 µM
  viability, T/C: 51.4%
Second compound 1 µM, first compound 1 µM
  viability, T/C: 36.3%
Second compound 1 µM, first compound 3.16 µM
  viability, T/C: 27.4%
Second compound 1 µM, first compound 10 µM
  viability, T/C: 14.7%
[9]
  viability, T/C: 88.7%
[10]
  viability, T/C: 55.5%
Second compound 3.16 µM, first compound 0.316 µM
  viability, T/C: 53.2%
Second compound 3.16 µM, first compound 1 µM
  viability, T/C: 46.8%
Second compound 3.16 µM, first compound 3.16 µM
  viability, T/C: 26.1%
Second compound 3.16 µM, first compound 10 µM
  viability, T/C: 15.6%
[11]
  viability, T/C: 72.5%
[12]
  viability, T/C: 66.9%
Second compound 10 µM, first compound 0.316 µM
  viability, T/C: 54.7%
Second compound 10 µM, first compound 1 µM
  viability, T/C: 41.6%
Second compound 10 µM, first compound 3.16 µM
  viability, T/C: 25.6%
Second compound 10 µM, first compound 10 µM
  viability, T/C: 11.7%

## CC[C@@]1(O)C(=O)OCc2c1cc1n(c2=O)Cc2cc3c(CN(C)C)c(O)ccc3nc2-1 + COC1C(OC(N)=O)C(O)C(Oc2ccc3c(O)c(NC(=O)c4ccc(O)c(CC=C(C)C)c4)c(=O)oc3c2C)OC1(C)C
Second compound 0.0316 µM
  IC50: > 100 nM
Second compound 0.1 µM
  IC50: 96 nM
Second compound 0.316 µM
  IC50: > 100 nM
Second compound 1 µM
  IC50: 76.9 nM
Second compound 3.16 µM
  IC50: > 100 nM
Second compound 10 µM
  IC50: > 100 nM
[13]
  viability, T/C: 94.8%
[14]
  viability, T/C: 89.7%
[15]
  viability, T/C: 104%
[16]
  viability, T/C: 110%
[1]
  viability, T/C: 57.3%
[2]
  viability, T/C: 52.5%
[17]
  viability, T/C: 95.7%
[18]
  viability, T/C: 104%
[19]
  viability, T/C: 123%
[20]
  viability, T/C: 91.4%
[3]
  viability, T/C: 78.2%
[4]
  viability, T/C: 48.7%
[21]
  viability, T/C: 114%
[22]
  viability, T/C: 99.2%
[23]
  viability, T/C: 91.1%
[24]
  viability, T/C: 70.9%
[5]
  viability, T/C: 91.3%
[6]
  viability, T/C: 46.6%
[25]
  viability, T/C: 84.5%
[26]
  viability, T/C: 83.8%
[27]
  viability, T/C: 102%
[28]
  viability, T/C: 82.4%
[7]
  viability, T/C: 61.5%
[8]
  viability, T/C: 46.6%
[29]
  viability, T/C: 92.3%
[30]
  viability, T/C: 96.3%
[31]
  viability, T/C: 101%
[32]
  viability, T/C: 91%
[9]
  viability, T/C: 63.2%
[10]
  viability, T/C: 54%
[33]
  viability, T/C: 95.5%
[34]
  viability, T/C: 109%
[35]
  viability, T/C: 110%
[36]
  viability, T/C: 119%
[11]
  viability, T/C: 74.1%
[12]
  viability, T/C: 54%

## CC[C@@]1(O)C(=O)OCc2c1cc1n(c2=O)Cc2cc3c(CN(C)C)c(O)ccc3nc2-1 + Nc1ccc(C#CCN(C(=O)Cc2ncc(C(F)(F)F)cc2C(F)(F)F)c2ccc(F)cc2)nn1
Second compound 0.0316 µM
  IC50: > 100 nM
Second compound 0.1 µM
  IC50: > 100 nM
Second compound 0.316 µM
  IC50: > 100 nM
Second compound 1 µM
  IC50: > 100 nM
Second compound 3.16 µM
  IC50: > 100 nM
Second compound 10 µM
  IC50: > 100 nM
[13]
  viability, T/C: 85%
[14]
  viability, T/C: 94%
[15]
  viability, T/C: 82.8%
[16]
  viability, T/C: 100%
[1]
  viability, T/C: 71.1%
[2]
  viability, T/C: 50.2%
[17]
  viability, T/C: 103%
[18]
  viability, T/C: 85.8%
[19]
  viability, T/C: 91%
[20]
  viability, T/C: 87.7%
[3]
  viability, T/C: 67.2%
[4]
  viability, T/C: 55.8%
[21]
  viability, T/C: 96.4%
[22]
  viability, T/C: 81.4%
[23]
  viability, T/C: 90.5%
[24]
  viability, T/C: 91.7%
[5]
  viability, T/C: 72%
[6]
  viability, T/C: 61.1%
[25]
  viability, T/C: 85.1%
[26]
  viability, T/C: 93.3%
[27]
  viability, T/C: 102%
[28]
  viability, T/C: 93.9%
[7]
  viability, T/C: 63.8%
[8]
  viability, T/C: 49.2%
[29]
  viability, T/C: 93.6%
[30]
  viability, T/C: 98.2%
[31]
  viability, T/C: 95.3%
[32]
  viability, T/C: 106%
[9]
  viability, T/C: 64.9%
[10]
  viability, T/C: 54.7%
[33]
  viability, T/C: 85.9%
[34]
  viability, T/C: 87.3%
[35]
  viability, T/C: 87.8%
[36]
  viability, T/C: 92.9%
[11]
  viability, T/C: 69.2%
[12]
  viability, T/C: 50%
